According to US20020122768A1, “Stable radiopharmaceutical compositions and methods for preparation thereof” (priority 2000, published 2002):
Marks after values point to notes of the source that are not given here.

Legend:
Assay type in all cases: physicochemical
[1] = Solution stability of ^90Y-A at −78° C., RCP by radio-HPLC; details: for RCP (%) change: t = 0 h to 72 h
Procedure: (§1) The integrity of a radiopharmaceutical is measured by the radiochemical purity (RCP) of the radiolabeled compound using ITLC or more preferably HPLC. The advantage of using HPLC is that radio-impurities caused by radiolytic degradation can be separated from the radiopharmaceutical under optimized chromatographic conditions. […] The radiopharmaceutical compositions of this invention are effective in maintaining the long-term stability of samples that have been frozen, thawed, and re-tested periodically for 7 days.
(§2) The initial RCP of a radiopharmaceutical is largely dependent on radiolabeling conditions such as pH, heating temperature and time. Once a radiopharmaceutical is prepared in high yield, the stability of the radiopharmaceutical composition is measured by the` RCP change of the radiopharmaceutical over a certain period of time. For comparison purposes, sodium gentisate or sodium ascorbate was often used as the reference since they have been used in various radiopharmaceutical formulations.
Analytical Methods. HPLC method 1 used a HP-1100 HPLC system with a UV/visible detector (λ=220 nm), an IN-US radio-detector, and a Zorbax C18 column (4.6 mm×250 mm, 80 Å pore size). The flow rate was 1 mL/min with the mobile phase being isocratic from 0 to 18 min using 87% solvent A (0.025 M ammonium acetate buffer, pH 6.8) and 13% solvent B (acetonitrile), followed by an isocratic wash using 40% of solvent A and 60% solvent B from 19 to 25 min.
The ITLC method used Gelman Sciences silica-gel ITLC paper strips and 1:1 mixture of acetone and saline as eluant. By this method, the radiolabeled compounds migrate to the solvent front while [^90Y]/^177Lu]colloid and [^90Y]/^177Lu]acetate remain at the origin.
^90Y-A was prepared using the procedure described in example 4. The resulting solution was the kept in a dry-ice box (−78° C.) for 3 days. Samples were analyzed at t=0, 24, 48, and 72 h.
To a lead-shielded clean 5 mL vial containing 100 μg of COMPOUND A and 2 mg of 3,4,5-trihydroxybenzoic acid (3,4,5-THBA) dissolved in 0.5 mL of 0.5 M ammonium acetate buffer (pH=8.0) was added 20 μL Of ^90YCl3 solution (˜20 mCi) in 0.05 N HCl. The reaction mixture was heated at 100° C. for 5 min. After cooling to room temperature, 0.5 mL of 3,4,5-THBA solution (20 mg/mL) in 0.5 M ammonium acetate buffer (pH=8.0) was added to the solution above. A sample of the resulting mixture was then diluted 20-fold with GA solution (10 mg/mL, pH=7.4), and analyzed by HPLC (Method 1, injection volume=1 μL) and ITLC. […] The resulting mixture was kept at −78° C. for 3 days. Samples were analyzed at t=0, 1, 2, and 3 days.
(§3) Synthesis of ^90Y-A was carried out according to the procedure described in example 12. After cooling to room temperature, 0.5 mL of 2,3,4-THBA solution (20 mg/mL) in 0.5 M ammonium acetate buffer (pH=8.0) was added to the solution containing ^90Y-A. The resulting mixture was kept at -78 °C for 3 days. Samples were analyzed at t=0, 1, 2, and 3 days.
as §3, with “DSA” for “2,3,4-THBA”, “−78° C.” for “-78 °C”
as §3, with “mL of HABA solution (20” for “mL of 2,3,4-THBA solution (20”, “kept at −78° C. for 3” for “kept at -78 °C for 3”, “3 days. […]” for “3 days.”
To a lead-shielded clean 30 mL vial containing 1000 μg of COMPOUND A and 100 mg of sodium gentisate (GA) dissolved in 5 mL of 0.5 M ammonium acetate buffer (pH=7.5) was added ˜250 μL of ^90YCl3 solution (˜200 mCi) in 0.05 N HCl. The reaction mixture was heated at 100° C. for 15 min. […]

[2] = Solution stability of ^90Y-B at −78° C., RCP by radio-HPLC; details: ^90Y-B prepared with GA
Procedure: as §1, §2
HPLC method 2 used a HP-1100 HPLC system with a UV/visible detector (λ=220 nm), an IN-US radio-detector, and a Zorbax C18 column (4.6 mm×250 mm, 80 Å pore size). The flow rate was 1 mL/min with a gradient mobile phase starting from 92% solvent A (0.025 M ammonium acetate buffer, pH 6.8) and 8% solvent B (acetonitrile) at 0 min to 90% solvent A and 10% solvent B at 18 min, followed by an isocratic wash using 40% of solvent A and 60% solvent B from 19 to 25 min.
The ITLC method used Gelman Sciences silica-gel ITLC paper strips and 1:1 mixture of acetone and saline as eluant. By this method, the radiolabeled compounds migrate to the solvent front while [^90Y]/^177Lu]colloid and [^90Y]/^177Lu]acetate remain at the origin. […]
The 0.5 M ammonium acetate buffer (pH 8.0) was first degassed under vacuum for 1-2 min. COMPOUND B and gentisic acid (sodium salt, GA) were dissolved in the degassed buffer to give a concentration of 100 μg/mL for COMPOUND B and 20 mg/mL for GA. The resulting solution was immediately degassed under vacuum for another 1-2 min. To a clean sealed 5 mL vial was added 1.0 mL of the degassed 0.5 M ammonium acetate buffer (pH 8.0) containing 100 μg COMPOUND B and 10 mg GA. The solution was degassed again under vacuum. Upon addition of ˜20 μL of ^90YCl3 solution (˜20 mCi) in 0.05 N HCl, the reaction mixture was heated at 100° C. for 5 min. After cooling to room temperature, a sample of the resulting solution was diluted 20-fold with saline containing gentisate (10 mg/mL), and was then analyzed by HPLC (Method 2, injection volume=1-2 μL) and ITLC. […] To the solution above was added 0.5 mL of sodium ascorbate solution (40 mg/mL in 0.5 M ammonium acetate buffer, pH=7.4). The resulting mixture was then kept in a dry-ice box (−78° C.) for 7 days. Samples were analyzed at t=0, 3 and 7 days.
The 0.5 M ammonium acetate buffer (pH 8.0) was first degassed under vacuum for 1-2 min. COMPOUND B and gentisic acid (sodium salt, GA) were dissolved in the degassed buffer to give a concentration of 100 μg/mL for COMPOUND B and 20 mg/mL for GA. The resulting solution was immediately degassed under vacuum for another 1-2 min. To a clean sealed 5 mL vial was added 1.0 mL of the degassed 0.5 M ammonium acetate buffer (pH 8.0) containing 100 μg COMPOUND B and 10 mg GA. The solution was degassed again under vacuum. Upon addition of ˜20 μL of ^90YCl3 solution (˜20 mCi) in 0.05 N HCl, the reaction mixture was heated at 100° C. for 5 min. After cooling to room temperature, a sample of the resulting solution was diluted 20-fold with saline containing gentisate (10 mg/mL), and was then analyzed by HPLC (Method 2, injection volume=1-2 μL) and ITLC. […] To the solution above was added 0.5 mL of 2,3,4-trihydroxybenzoic acid solution (20 mg/mL in 0.5 M ammonium acetate buffer, pH=6.5). The resulting mixture was then kept in a dry-ice box (−78° C.) for 7 days. Samples were analyzed at t=0, 3 and 7 days. […]

[3] = Solution stability of ^90Y-A at room temperature, RCP by radio-HPLC; details: room temperature; for RCP (%) t = 0 h / RCP (%) t = 24 h / RCP (%) t = 48 h / RCP (%) t = 120 h / RCP (%) t = 144 h / RCP (%) t = 72 h / RCP (%) t = 148 h: ^90Y-A (~20 mCi); for RCP (%) change: ^90Y-A, t = 0 h to last time point
Procedure: The advantage of using HPLC is that radio-impurities caused by radiolytic degradation can be separated from the radiopharmaceutical under optimized chromatographic conditions.
The initial RCP of a radiopharmaceutical is largely dependent on radiolabeling conditions such as pH, heating temperature and time. Once a radiopharmaceutical is prepared in high yield, the stability of the radiopharmaceutical composition is measured by the` RCP change of the radiopharmaceutical over a certain period of time.
Analytical Methods. HPLC method 1 used a HP-1100 HPLC system with a UV/visible detector (λ=220 nm), an IN-US radio-detector, and a Zorbax C18 column (4.6 mm×250 mm, 80 Å pore size).
The ITLC method used Gelman Sciences silica-gel ITLC paper strips and 1:1 mixture of acetone and saline as eluant.
(§4) The reaction mixture was heated at 100° C. for 10 min. A sample of the resulting solution was first diluted 20-fold with 2 mM DTPA solution (pH=5), and was then analyzed by HPLC (Method 1, injection volume=1-2 μL) and ITLC. […] The resulting solution was kept at room temperature for 6 days.
as §4, §4
The reaction mixture was heated at 100° C. for 10 min. A sample of the resulting solution was first diluted 20-fold with 2 mM DTPA solution (pH=5), and was then analyzed by HPLC (Method 1, injection volume 1-2 μL) and ITLC. […] The resulting solution was kept at room temperature for 7 days.
(§5) The reaction mixture was heated at 100° C. for 10 min. A sample of the resulting solution was first diluted 20-fold with 2 mM DTPA solution (pH=5), and was then analyzed by HPLC (Method 1, injection volume=1-2 μL) and ITLC. […] The resulting solution was kept at room temperature for 7 days.
as §5, §5

[4] = ^90Y-A prepared using 2 mg 3,4,5-THBA, second stabilizer (0.5 mL of 20 mg/mL) added after radiolabeling, −78° C.
[5] = degassed, second stabilizer (20 mg AA, 20 mg DSA, 10 mg 2,3,4-THBA, 10 mg HABA) added post-labeling
[6] = ^90Y-A, 10 mg stabilizer, dry-ice box (−78° C.)
[7] = ^90Y-A, 10 mg stabilizer, −78° C.

SMILES | RCP (%) t = 0 h ([3]; 2 mg stabilizer) | RCP (%) t = 24 h ([3]; 2 mg stabilizer) | RCP (%) t = 48 h ([3]; 2 mg stabilizer) | RCP (%) t = 120 h ([3]; 2 mg stabilizer) | RCP (%) t = 144 h ([3]; 2 mg stabilizer) | RCP (%) t = 0 h ([3]; 10 mg stabilizer) | RCP (%) t = 24 h ([3]; 10 mg stabilizer) | RCP (%) t = 72 h ([3]; 10 mg stabilizer) | RCP (%) t = 148 h ([3]; 10 mg stabilizer) | RCP (%) change ([3]; 10 mg stabilizer) | RCP (%) t = 0 h [1, 6] | RCP (%) t = 24 h [1, 6] | RCP (%) t = 48 h [1, 6] | RCP (%) t = 72 h [1, 6] | RCP (%) change [1, 7] | other results
Nc1ccc(C(=O)O)cc1O [HABA, 3-hydroxy-4-aminobenzoic acid] | – | – | – | – | – | – | – | – | – | – | – | – | – | – | – | RCP (%) t = 0 h [1, 4]: 98.5%; RCP (%) t = 24 h [1, 4]: 98.3%; RCP (%) t = 48 h [1, 4]: 98.7%; RCP (%) t = 72 h [1, 4]: 98.1%; RCP (%) change ([1]; ^90Y-A prepared using 2 mg 3,4,5-THBA, second stabilizer added after radiolabeling, −78° C.): 0.4%; RCP (%) t = 0 [2, 5]: 94.8%; RCP (%) t = 3 days [2, 5]: 94.5%; RCP (%) t = 7 days [2, 5]: 94.0%; RCP (%) change ([2]; second stabilizer added post-labeling, t = 0 to 7 days): 0.8%
O=Cc1cc(O)c(O)c(O)c1 [3,4,5-THBAD, 3,4,5-trihydroxybenzaldehyde] | 95.5% | 92.8% | 87.4% | 84.9% | 80.7% | 88.1* % | 82.3% | 77.3% | 68.4% | 19.7% | 88.2% | 86.4% | 87.3% | 87.4% | 0.8% | –
O=C([O-])c1cc(O)ccc1O.[Na+] [GA, sodium gentisate, reference compound] | 94.6% | 84.5% | 80.7% | 71.2% | 69.7% | 96.3% | 92.6% | 83.8% | 77.3% | 19% | 96.4% | 96.7% | 95.4% | 94.6% | 1.8% | –
